The structures appear in SMILES notation. pIC50: −log10 of the molar value. Where only a bound is given, the exact number is not on record here.

One assay addresses Thromboxane-A synthase (Oryctolagus cuniculus). The assay is described as follows: Inhibitory activity against Thromboxane synthetase.
Settings: not given
One may read the pIC50 as the IC50 on a negative log10 scale, so that one unit is a factor of ten. A higher pIC50 goes with a small IC50. Molecule `C/C(=C\c1ccc(C(C)c2cccnc2)cc1)C(=O)O` (stereo not drawn) gave a pIC50 of 7.60.

The molecule `O=C(O)CCCCc1cccnc1` had a pIC50 of 6.30.

For `CC/C(=C\c1ccc(Cc2cccnc2)cc1)C(=O)O`, the pIC50 was 8.15.

The molecule `O=C(O)CCCCCc1cccnc1` had a negative-log IC50 (pIC50) of 7.07.

As to `CC(Cc1ccc(Cc2cccnc2)cc1)C(=O)O` (stereo not drawn), the pIC50 is 7.70.

For the molecule `O=C(O)CCCCCCCc1cccnc1`, the pIC50 is 7.12.

`C/C(=C\C(=O)O)c1ccc(Cc2cccnc2)cc1` gave a negative-log IC50 (pIC50) of 7.25.

`O=C(O)CCCCCc1ccncc1` had a pIC50 of under 6.00.

For the molecule `C/C(=C\c1ccc(Cn2ccnc2)cc1)C(=O)O`, the pIC50 was 8.40.

For `O=C(O)CCCCCCCc1ccncc1`, the pIC50 is under 6.00.

With `C/C(=C\c1ccc(Cc2cccnc2)s1)C(=O)O`, the pIC50 was 7.92.

The molecule `O=C(O)CCCCCCc1cccnc1` gave a pIC50 of 7.17.

`O=C(O)CCCCc1ccncc1` showed a pIC50 of under 6.00.

`O=C(O)CCc1ccc(Cc2cccnc2)cc1` gave a pIC50 of 6.68.

Consider `O=C(O)CCCCCCc1ccncc1`, for which the pIC50 was under 6.00.

The molecule `O=C(O)/C(Br)=C/c1ccc(Cc2cccnc2)cc1` gave a pIC50 of 8.30.

As for `O=C(O)CCCCCn1ccnc1`, the pIC50 is under 6.00.

As for `C/C(=C/c1ccc(Cc2cccnc2)cc1)C(=O)O`, the pIC50 is 8.52.

For the molecule `C/C(=C\c1ccc(Cc2ccncc2)cc1)C(=O)O`, the pIC50 is under 6.00.

The molecule `O=C(O)/C=C/c1ccc(Cc2cccnc2)cc1` showed a pIC50 of 8.00.

Molecule `O=C(O)/C=C/c1ccc(Cc2cccnc2)s1` gave a pIC50 of 7.33.

`O=C(O)CCCCn1ccnc1` had a pIC50 of under 6.00.

`C/C(=C\C(=O)O)c1ccc(Cc2cccnc2)c(C)c1`: the pIC50 was 7.74.

The subject of a further assay is Thromboxane-A synthase (Oryctolagus cuniculus).
Assay: not given
The following applies: at 100 µM.
As a reminder, the inhibition is how much of the control response was suppressed. Read a high inhibition as a strong effect. In turn, `c1ccnnc1` registered an inhibition of 16.8%.

Turning to `c1cn[nH]c1`, the inhibition amounted to 8.9%.

In the case of `c1cscn1`, the inhibition came out at 17.3%.

On to `c1ncncn1`, for which the inhibition was 11%.

In a further assay the target is T1, Thromboxane-A synthase (Homo sapiens) (UniProt P24557).
T1 sequence (whole entry): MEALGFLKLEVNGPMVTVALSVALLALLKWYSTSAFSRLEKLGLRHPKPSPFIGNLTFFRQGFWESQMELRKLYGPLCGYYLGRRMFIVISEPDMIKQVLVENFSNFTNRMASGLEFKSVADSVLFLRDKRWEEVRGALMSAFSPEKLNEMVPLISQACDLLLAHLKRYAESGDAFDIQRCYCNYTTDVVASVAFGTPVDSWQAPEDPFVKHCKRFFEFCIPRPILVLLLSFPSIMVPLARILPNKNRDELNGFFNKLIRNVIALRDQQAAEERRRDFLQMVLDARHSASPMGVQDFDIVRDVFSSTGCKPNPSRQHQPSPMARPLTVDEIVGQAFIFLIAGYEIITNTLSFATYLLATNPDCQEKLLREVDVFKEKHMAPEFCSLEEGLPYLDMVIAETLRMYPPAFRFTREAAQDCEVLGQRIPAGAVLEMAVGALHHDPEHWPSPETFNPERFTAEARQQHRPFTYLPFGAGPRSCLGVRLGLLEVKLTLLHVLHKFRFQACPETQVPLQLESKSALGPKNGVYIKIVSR
The assay is described as follows: Inhibition of Thromboxane synthetase at 100 µM.
Settings: not given
`c1cncnc1` yielded an inhibition of 12%.

These data come from ChEMBL document CHEMBL1121724 (J Med Chem, 1981).
